The target in experiment [1] is T1, HCV polymerase (NS5B) type 1b (Hepatitis C virus genotype 1b, UniProt P26663).
T1 construct: a region encoding NS5B (J Virol 1991 March, 65(3), 1105-13, 544 amino acids after deletion of 47 amino acids on the C-terminal); 6xHis (C); made in house; host or cells: Escherichia coli
Description: Assay of enzyme (HCV polymerase) inhibitory activity, type 1b enzyme. It is filed as biochemical, HCV BK strain (type 1b). An outline of the steps:
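Rxn: NS5B 1b (BK, ΔC47, His6) 0.5 μg/ml; substrate RNA 5 μg/ml; ATP/GTP/CTP 50 μM, UTP 2 μM + [5,6-3H]UTP; 20 mM Tris pH 7.5, 5 mM MgCl2, 50 mM NaCl, 1 mM EDTA/DTT. 25 °C, 60 min. Stop with TCA/pyrophosphate, filter, scintillation count; IC50 vs. untreated.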

In experiment [2] the target is T2, HCV polymerase (NS5B) type 1a (Hepatitis C virus genotype 1a, UniProt P26664).
T2 construct: made in house; host or cells: Escherichia coli (by the 'similar method' of the 1b enzyme)
Description: Assay of enzyme (HCV polymerase) inhibitory activity, type 1a enzyme. It is filed as biochemical, HCV type 1a (cloned from the blood of patients). An outline of the steps: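 NS5B Δ47 C-term His6 (type 1a, 1.5 μg/ml); substrate RNA 5 μg/ml; ATP/GTP/CTP 50 μM, UTP 2 μM + [5,6-3H]UTP; Tris pH 7.5, MgCl2 5 mM; 25° C, 60 min. TCA/pyrophosphate stop, GF/B filter, scintillation. IC50 vs no-compound control.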

Setting [3] is: HCV polymerase inhibitory activity IC50, 1b, type 1b enzyme.
The mark [4] stands for this setting: HCV polymerase inhibitory activity IC50, 1a, type 1a enzyme.
[5] abbreviates: HCV polymerase inhibitory activity (IC50), 1b, type 1b enzyme 0.5 μg/ml, 25° C., 60 min.
The mark [6] stands for this setting: HCV polymerase inhibitory activity (IC50), 1a, type 1a enzyme 1.5 μg/ml, 25° C., 60 min.

A value given as a limit tells only on which side of the number the result lay.

By IC50 is commonly meant the point on the concentration scale where inhibition reaches its midpoint. Read a low IC50 as greater potency. On to `COc1nc(C(F)(F)F)nc2nc(N3CCN(S(=O)(=O)c4ccc(OC(F)(F)F)cc4)[C@@H](C(=O)NCc4ccc(OC(F)(F)F)cc4)C3)sc12` [Example 1022, (R)-4-(7-methoxy-5-trifluoromethyl-thiazolo[4,5-d]pyrimidin-2-yl)-1-(4-trifluoromethoxy-benzenesulfonyl)-piperazine-2-carboxylic acid 4-trifluoromethoxy-benzylamide], for which the IC50 in experiment [1] (setting [3]) and in experiment [2] (setting [4]) was 100 to 1000 nM in each case.

In the case of `CC(=O)N1CCN(S(=O)(=O)c2ccc(OC(F)(F)F)cc2)[C@@H](C(=O)NCC2CCN(C(=O)OC(C)(C)C)CC2)C1` [Example 644, 4-({[(R)-4-acetyl-1-(4-trifluoromethoxy-benzenesulfonyl)-piperazine-2-carbonyl]-amino}-methyl)-piperidine-1-carboxylic acid tert-butyl ester], the IC50 in experiment [1] (setting [5]) and in experiment [2] (setting [6]) was over 1000 nM each time.

In the case of `O=C(NCc1ccc(OC(F)(F)F)cc1)[C@H]1CN(c2nc3ccc(=O)[nH]c3s2)CCN1S(=O)(=O)c1ccc(OC(F)(F)F)cc1` [Example 1062, (R)-4-(5-oxo-4,5-dihydro-thiazolo[5,4-b]pyridin-2-yl)-1-(4-trifluoromethoxy-benzenesulfonyl)-piperazine-2-carboxylic acid 4-trifluoromethoxy-benzylamide], the IC50 in experiment [1] (setting [3]) and in experiment [2] (setting [4]) was under 100 nM in each case.

`CCCc1ccc(CNC(=O)[C@H]2CN(C(=O)Nc3nc(CCO)cs3)CCN2S(=O)(=O)c2ccc(OC(F)(F)F)cc2)cc1` [Example 476, (R)-4-(4-trifluoromethoxy-benzenesulfonyl)-piperazine-1,3-dicarboxylic acid 1-{[4-(2-hydroxy-ethyl)-thiazol-2-yl]-amide} 3-(4-propyl-benzylamide)]: the IC50 in experiment [1] (setting [5]) and in experiment [2] (setting [6]) was 100 to 1000 nM throughout.

Turning to `CCCc1ccc(CNC(=O)[C@H]2CN(c3ccc(C(=O)O)c(F)c3)CCN2S(=O)(=O)c2ccc(CC)cc2)cc1` [Example 889, 4-[(R)-4-(4-ethyl-benzenesulfonyl)-3-(4-propyl-benzylcarbamoyl)-piperazin-1-yl]-2-fluoro-benzoic acid], the IC50 in experiment [1] (setting [3]) and in experiment [2] (setting [4]) was over 1000 nM throughout.

As for `CC(=O)N1CCN(S(=O)(=O)c2ccc(-c3ccc(Cl)cc3)cc2)C(C(=O)NCc2ccc(C(F)(F)F)cc2)C1` (stereo not drawn) [Example 26, 4-acetyl-1-(4′-chloro-biphenyl-4-sulfonyl)-piperazine-2-carboxylic acid 4-trifluoromethyl-benzylamide], the IC50 in experiment [1] (setting [5]) and in experiment [2] (setting [6]) was over 1000 nM each time.

For `CC(C)(C)c1ccc(CNC(=O)[C@H]2CN(c3cnc4cnccc4n3)CCN2S(=O)(=O)c2ccc(OC(F)(F)F)cc2)cc1` [Example 689, (R)-4-pyrido[3,4-b]pyrazin-2-yl-1-(4-trifluoromethoxy-benzenesulfonyl)-piperazine-2-carboxylic acid 4-tert-butyl-benzylamide], the IC50 in experiment [1] (setting [3]) and in experiment [2] (setting [4]) was under 100 nM each time.

On to `COC(=O)Cc1cc(S(=O)(=O)N2CCN(C(C)=O)C[C@@H]2C(=O)NCc2ccc(C(C)C)cc2)ccc1OC` [Example 217, {5-[(R)-4-acetyl-2-(4-isopropyl-benzylcarbamoyl)-piperazine-1-sulfonyl]-2-methoxy-phenyl}-acetic acid methyl ester], for which the IC50 in experiment [1] (setting [5]) and in experiment [2] (setting [6]) was over 1000 nM throughout.

With `CC(=O)N1CCN(S(=O)(=O)c2ccc(C(C)C)cc2)[C@@H](C(=O)NCCc2ccccc2Cl)C1` [Example 149, (R)-4-acetyl-1-(4-isopropyl-benzenesulfonyl)-piperazine-2-carboxylic acid [2-(2-chloro-phenyl)-ethyl]-amide], the IC50 in experiment [1] (setting [5]) and in experiment [2] (setting [6]) was over 1000 nM each time.

Consider `CC(=O)N1CCN(S(=O)(=O)c2ccc(-c3ccccc3)cc2)[C@@H](C(=O)NCc2ccc(C(C)C)cc2)C1` [Example 206, (R)-4-acetyl-1-(biphenyl-4-sulfonyl)-piperazine-2-carboxylic acid 4-isopropyl-benzylamide], for which the IC50 in experiment [1] (setting [5]) and in experiment [2] (setting [6]) was 100 to 1000 nM in each case.

Turning to `CC(=O)N1CCN(S(=O)(=O)c2ccc(OC(F)(F)F)cc2)[C@@H](C(=O)NCc2ccccc2-c2ccccc2)C1` [Example 642, (R)-4-acetyl-1-(4-trifluoromethoxy-benzenesulfonyl)-piperazine-2-carboxylic acid (biphenyl-2-ylmethyl)-amide], the IC50 in experiment [1] (setting [5]) and in experiment [2] (setting [6]) was over 1000 nM each time.

For the compound `O=C(NCc1ccc(OC(F)(F)F)cc1)[C@H]1CN(c2nc3c(=O)[nH][nH]c(=O)c3s2)CCN1S(=O)(=O)c1ccc(OC(F)(F)F)cc1` [Example 803, (R)-4-(4,7-dioxo-4,5,6,7-tetrahydro-thiazolo[4,5-d]pyridazin-2-yl)-1-(4-trifluoromethoxy-benzenesulfonyl)-piperazine-2-carboxylic acid 4-trifluoromethoxy-benzylamide], the IC50 in experiment [1] (setting [3]) and in experiment [2] (setting [4]) was under 100 nM throughout.

Consider `CC(C)c1ccc(CNC(=O)[C@H]2CN(C(=O)Nc3ccc(OCC(=O)O)cc3)CCN2S(=O)(=O)c2ccc(C(F)(F)F)cc2)cc1` [Example 246, (4-{[(R)-3-(4-isopropyl-benzylcarbamoyl)-4-(4-trifluoromethyl-benzenesulfonyl)-piperazine-1-carbonyl]-amino}-phenoxy)-acetic acid], for which the IC50 in experiment [1] (setting [5]) was 100 to 1000 nM; in experiment [2] (setting [6]) it was over 1000 nM.

As to `CC(=O)N1CCc2nc(N3CCN(S(=O)(=O)c4ccc(OC(F)(F)F)cc4)[C@@H](C(=O)NCc4ccc(C(C)(C)C)cc4)C3)sc2C1` [Example 589, (R)-4-(5-acetyl-4,5,6,7-tetrahydro-thiazolo[5,4-c]pyridin-2-yl)-1-(4-trifluoromethoxy-benzenesulfonyl)-piperazine-2-carboxylic acid 4-tert-butyl-benzylamide], the IC50 in experiment [1] (setting [5]) and in experiment [2] (setting [6]) was under 100 nM throughout.

Regarding `O=C(NCc1ccc(OC(F)F)cc1)[C@H]1CN(c2nc3ncncc3s2)CCN1S(=O)(=O)c1ccc(C(F)(F)F)cc1` [Example 969, (R)-4-thiazolo[4,5-d]pyrimidin-2-yl-1-(4-trifluoromethyl-benzenesulfonyl)-piperazine-2-carboxylic acid 4-difluoromethoxy-benzylamide], the IC50 in experiment [1] (setting [3]) and in experiment [2] (setting [4]) was under 100 nM throughout.

`CC(=O)N1CCN(S(=O)(=O)c2ccc(C(C)C)cc2)[C@@H](C(=O)NCc2ccc(C(C)(C)CO)cc2)C1` [Example 169, (R)-4-acetyl-1-(4-isopropyl-benzenesulfonyl)-piperazine-2-carboxylic acid 4-(2-hydroxy-1,1-dimethyl-ethyl)-benzylamide]: the IC50 in experiment [1] (setting [5]) and in experiment [2] (setting [6]) was over 1000 nM throughout.

For `CNC(=O)c1nncc2sc(N3CCN(S(=O)(=O)c4ccc(OC(F)(F)F)cc4)[C@@H](C(=O)NCc4ccc(OC(F)(F)F)cc4)C3)nc12` [Example 916, 2-[(R)-4-(4-trifluoromethoxy-benzenesulfonyl)-3-(4-trifluoromethoxy-benzylcarbamoyl)-piperazin-1-yl]-thiazolo[4,5-d]pyridazine-4-carboxylic acid methylamide], the IC50 in experiment [1] (setting [3]) and in experiment [2] (setting [4]) was under 100 nM each time.

As to `CCC(F)(F)c1ccc(CNC(=O)[C@H]2CN(c3nc(OC)ns3)CCN2S(=O)(=O)c2ccc(OC(F)(F)F)cc2)cc1` [Example 625, (R)-4-(3-methoxy-[1,2,4]thiadiazol-5-yl)-1-(4-trifluoromethoxy-benzenesulfonyl)-piperazine-2-carboxylic acid 4-(1,1-difluoro-propyl)-benzylamide], the IC50 in experiment [1] (setting [5]) and in experiment [2] (setting [6]) was under 100 nM throughout.

As for `O=C(NCc1cc2ccccn2c1)[C@H]1CN(c2nc3ncncc3s2)CCN1S(=O)(=O)c1ccc(OC(F)(F)F)cc1` [Example 989, (R)-4-thiazolo[4,5-d]pyrimidin-2-yl-1-(4-trifluoromethoxy-benzenesulfonyl)-piperazine-2-carboxylic acid (indolizin-2-ylmethyl)-amide], the IC50 in experiment [1] (setting [3]) and in experiment [2] (setting [4]) was under 100 nM in each case.

Consider `CC(=O)N1CCN(S(=O)(=O)c2ccc(C(C)C)cc2)[C@@H](C(=O)NCc2ccc(C(F)(F)F)cc2)C1` [Example 18, (R)-4-acetyl-1-(4-isopropyl-benzenesulfonyl)-piperazine-2-carboxylic acid 4-trifluoromethyl-benzylamide], for which the IC50 in experiment [1] (setting [5]) and in experiment [2] (setting [6]) was 100 to 1000 nM in each case.

On to `Cn1ncc2sc(N3CCN(S(=O)(=O)c4ccc(C(F)(F)F)cc4)[C@@H](C(=O)NCc4ccc(OC(F)(F)F)cc4)C3)nc2c1=O` [Example 1030, (R)-4-(5-methyl-4-oxo-4,5-dihydro-thiazolo[4,5-d]pyridazin-2-yl)-1-(4-trifluoromethyl-benzenesulfonyl)-piperazine-2-carboxylic acid 4-trifluoromethoxy-benzylamide], for which the concentration for half-maximal inhibition (IC50) in experiment [1] (setting [3]) and in experiment [2] (setting [4]) was under 100 nM each time.

For the origin of these results see patent US8017612B2, “Piperazine compound and use thereof as a HCV polymerase inhibitor” (priority 2006, dated 2011).
